From US11390617B2, “Methods of treating non-Hodgkin lymphoma using 2-(2,6-dioxopiperidin-3-yl)-4-((2-fluoro-4-((3-morpholinoazetidin-1-yl)methyl)benzyl)amino)isoindoline-1,3-dione” (Celgene Corporation, priority 2019, dated 2022) come the findings set out here.

pIC50: −log10 of the molar value.

For one assay, the system named is SU-DHL-4 cell line. The experiment in a line: Cell proliferation and viability assay using SU-DHL-4 cell line (Cell Titer-Glo). The following applies: Homo sapiens, SU-DHL-4, 120 hours. It is filed as cell-based. On the procedure: The following exemplary assay uses a DLBCL cell line, for example, the SU-DHL-4 cell line (Deutsche Sammlung von Mikroorganismen und Zellkulturen GmbH [DSMZ]: catalogue number ACC-495) at 120 hours post-treatment. The seeding density for SU-DHL-4 can be optimized to ensure assay linearity in 1536-well plates.
Increasing concentrations (0.5 nM to […]) of Compounds 1, 2, and 3 were each spotted in a 20-point dilution fashion (unevenly spaced data points) via an acoustic dispenser (EDC ATS-100) into an empty 1536-well plate. The DMSO concentration was kept constant for a final assay concentration of 0.1% DMSO. Prior to testing, SU-DHL-4 cells were grown in RPMI-1640 (Roswell Park Memorial Institute-1640) medium with 10% FBS (fetal bovine serum: HyClone) and expanded in culture flasks to provide sufficient amounts of starting material. Cells were then diluted to 500 cells per well in a 5 μL volume, and added directly to the compound-spotted 1536-well plates. Cells were allowed to grow for 120 hours in 5% CO2 at 37° C. At the time when exposure of cells to compound began (t0), initial viable cell number was assessed via Cell Titer-Glo® Luminescent Cell Viability Assay at a 1 vol: 2 vol ratio according to manufacturer's instructions (Promega Corporation, Madison, Wis.) by quantifying the level of luminescence generated by adenosine-5′-triphosphate (ATP) present in viable cells. After 120 hours, cell viability of the treated cells was assessed via Cell Titer-Glo© and read for luminescence. All growth inhibition curves were processed and evaluated using Activity Base (IDBS, Alameda, Calif.). Cell viability IC50 values were calculated using a four parameter logistic model (sigmoidal dose-response model): y=(A+((B−A)/(1+((C/x)^D)))) wherein: A=YMin B=YMax C=EC50 D=Hill slope IC50=the concentration of the compound when Y=50% of DMSO control Y=cell viability measured as luminescence unit, and x=concentration of compound.
A general note: Cellular ATP, detected with luciferase, serves as a proxy for viable cell number.

Assay [1] relates to lymphoma cell lines WSU-DLCL2, SU-DHL6 and RL. The experiment in a line: Macrophage mediated phagocytosis (ADCP) with rituximab. It is filed as cell-based. The settings on record: macrophages treated with Compound 1 10 nM 48 hours, 3 hours. How it is done: Monocyte-derived macrophages (MDM) were generated by plating 8×10^6 commercial monocytes isolated from PBMC in RPMI media supplemented with 10% FBS, 1% L-glutamine and 60 ng/mL macrophage colony-stimulating factor (M-CSF) during 6 to 7 days. Then, MDM were treated with Compound 1 (10 nM) or DMSO control and cultured for an additional 48 hours prior to the assay. Lymphoma cell lines WSU-DLCL2, SU-DHL6 and RL were stained with CellTrace CFSE at 200 nM in PBS for 5 minutes at room temperature and added to the MDM cultures. At the time of co-culture, rituximab or isotype control were added to the media and cells were incubated at 37° C. during 3 hours. At the end of culture, cells were stained with anti-CD14 APC and images were acquired in Operetta. Phagocytosis index was calculated as cells positive for CFSE (green) and CD14 (red).

Assay [2] deals with RL follicular lymphoma xenograft tumors. Description: RL (follicular lymphoma) xenograft model, monotherapy. It is filed as in vivo, female SCID mice. The settings on record: 5 days on 2 days off for 3 weeks. On the procedure:
Anti-tumor activity of Compound 1 was evaluated as monotherapy (between 1 and 30 mg/kg, qd) in RL (follicular lymphoma) xenograft model.
Xenograft study was conducted with female SCID mice bearing RL follicular lymphoma xenograft tumors. Female SCID mice were inoculated subcutaneously with RL cells in the flank region above the right hind leg. Following inoculation of animals, the tumors were allowed to grow to approximately 200 mm^3 prior to randomization. On day 14 following tumor cell inoculation, the mice bearing RL tumors ranging between 150 and 250 mm^3 were pooled together and randomized into various treatment groups. Compound 1 was formulated in 0.5% Methyl Cellulose, 0.25% Tween 80 and 50 mM Citrate pH 3 in water. Compound 1 at 1, 3, 10 or 30 mg/kg was orally administered once daily with a 5 days on and 2 days off schedule for 3 weeks starting from day 14 after tumor cell inoculation. Tumors were measured twice a week using calipers and tumor volumes were calculated using the formula of W^2×L/2. Statistical analysis was performed using a one-way or 2-way analysis of variance (ANOVA). Synergy calculations were performed using fractional product method.

[3] abbreviates: 3, 10 and 30 mg/kg oral once daily.

Turning to `O=C1CC[C@H](N2C(=O)c3cccc(NCc4ccc(CN5CC(N6CCOCC6)C5)cc4F)c3C2=O)C(=O)N1` [Compound 1, (S)-2-(2,6-dioxopiperidin-3-yl)-4-((2-fluoro-4-((3-morpholinoazetidin-1-yl)methyl)benzyl)amino)isoindoline-1,3-dione], the pIC50 in the assay with SU-DHL-4 cell line was > 6.70. In assay [1], the “phagocytosis of lymphoma cell lines mediated by macrophages (ADCP)” value was “enhances phagocytosis of lymphoma cell lines mediated by macrophages”. In addition, the “inhibited RL follicular lymphoma tumor growth” value in assay [2] (1 mg/kg oral once daily) is listed as −96.8%. In assay [2] (setting [3]), the tumor free animals result is given as “all the animals became tumor free” and the tumor growth entry is “completely inhibited”.

What is called pIC50 is the negative decadic logarithm of the IC50, by convention in mol/L. Low readings indicate a high IC50, high ones a low IC50.
